Measurements from US10118908B2, “Method for manufacturing furan-2,5-dicarboxylic acid (FDCA) from a solid salt” (PURAC BIOCHEM BV, priority 2015, dated 2018).

Tests used:
[1] = Solubility of FDCA in water as a function of magnesium chloride concentration; format: physicochemical; conditions: magnesium chloride solutions in water, stirred 24 h at 21.8° C. and 48.8° C., filtrate analysed by HPLC; values only in FIG. 3
Method: Magnesium chloride solutions in water were prepared by dissolving magnesium chloride hexahydrate in water. To each solution (30 g) solid FDCA was added and the mixture was stirred for 24 h at 21.8° C. After stirring a sample was taken and filtered by means of a 0.45 micron filter. The clear filtrate was analysed on FDCA content by means of HPLC. The experiment was repeated at 48.8° C.

[2] = Saturation concentration of MgFDC solution; format: physicochemical; conditions: solution at 20° C., as anhydrate
Method: The HCl was added over a period of about 1 hour and the final pH was 1.5. […] The solid FDCA was filtered off and washed with water. The concentration of 4 wt. % was chosen as it is the saturation concentration at 20° C.

Structure (SMILES)	solubility of FDCA [1]	saturation concentration [2]
O=C(O)c1ccc(C(=O)O)o1 [FDCA, furan-2,5-dicarboxylic acid]	depends strongly on temperature and on the concentration of magnesium chloride	
O=C([O-])c1ccc(C(=O)[O-])o1.[Mg+2] [MgFDC, magnesium furan-2,5-dicarboxylate]		4 wt. %
